For 22 compounds, EC50 and IC50 results are on record in patent US10316017B2, “COT modulators and methods of use thereof” (Gilead Sciences, Inc., priority 2015, dated 2019).

Read-outs that look alike come from different tables or passages of the source.

The test system of assay [1] is TNFα production in LPS-stimulated human monocytes. Kind of assay: Cot Monocyte TNFα Cell Based Assay. The note with it: Homo sapiens, Monocyte, read-out: EC50 TNF. In short, it runs like this: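 Human monocytes (5,000 cells/well) pretreated with compound for 1 hour at 37° C (0.5% DMSO), then stimulated with 50 pg/ml LPS for 4 hours. Total TNFα measured by TR-FRET after overnight antibody incubation at room temp, expressed as percent of control between unstimulated and stimulated cells.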

The target of assay [2] is T1, human Cot catalytic domain (30-397 amino acids) (Homo sapiens, UniProt P41279).
T1 construct: Purified recombinant human Cot catalytic domain (30-397 amino acids) was purchased from Cama Biosciences; purchased Cama Biosciences (so in the source)
Description: High Throughput Cot Biochemical Assay (KinEASE TR-FRET). As to conditions: read-out: IC50 HTRF. An outline of the steps:
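Recombinant human Cot catalytic domain (aa 30-397), 5 nM, with 1 μM STK3 peptide and 400 μM ATP in MOPS pH 7.0 buffer with MgOAc, DTT, BSA, NP-40, glycerol, 0.1% DMSO. Phosphorylated XL665-peptide detected by Eu-[…] antibody TR-FRET.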
In general terms: TR-FRET usually uses a lanthanide donor and a delayed reading to cut background.

The mark [3] stands for this setting: TNFα in LPS-stimulated human monocytes.
Where [4] appears, read: Cot biochemical HTRF (KinEASE TR-FRET) assay.
The mark [5] stands for this setting: LPS-stimulated human monocytes, TNFα TR-FRET.
The mark [6] stands for this setting: Cot KinEASE TR-FRET, 400 μM ATP.
The mark [7] stands for this setting: Cot KinEASE TR-FRET (HTRF) biochemical assay, 400 μM ATP.

T1 sequence (P41279 30-397): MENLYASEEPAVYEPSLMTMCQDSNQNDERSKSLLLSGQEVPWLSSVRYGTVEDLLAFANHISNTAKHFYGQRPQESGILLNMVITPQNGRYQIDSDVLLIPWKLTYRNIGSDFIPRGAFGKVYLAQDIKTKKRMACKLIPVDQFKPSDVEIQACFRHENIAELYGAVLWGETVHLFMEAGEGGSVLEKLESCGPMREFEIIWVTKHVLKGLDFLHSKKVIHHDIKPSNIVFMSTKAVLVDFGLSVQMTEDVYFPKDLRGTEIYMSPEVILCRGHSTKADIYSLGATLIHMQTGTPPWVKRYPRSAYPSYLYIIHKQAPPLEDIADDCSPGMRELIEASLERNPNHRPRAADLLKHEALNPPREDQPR

`C[C@H](Nc1c(C#N)cnc2c(Cl)cc(N[C@@H](c3ccccc3)c3cn(C4CCN(C(C)(C)C)CC4)nn3)cc12)C(C)(C)C` [Example 486, 6-(((S)-(1-(1-(tert-butyl)piperidin-4-yl)-1H-1,2,3-triazol-4-yl)(phenyl)methyl)amino)-8-chloro-4-(((S)-3,3-dimethylbutan-2-yl)amino)quinoline-3-carbonitrile]: the EC50 in assay [1] (setting [3]) stood at 637 nM. For the same compound, in assay [2] (setting [4]), the IC50 is 24 nM.
On the same counts, the results for `N#Cc1cnc2c(Cl)cc(N[C@@H](c3ccc(Cl)cc3)c3c[nH]nn3)cc2c1Nc1cc(F)c(F)cc1F` [Example 647, (S)-8-chloro-6-(((4-chlorophenyl)(1H-1,2,3-triazol-4-yl)methyl)amino)-4-((2,4,5-trifluorophenyl)amino)quinoline-3-carbonitrile] are 3240 nM and 377 nM.
On to `Cc1c(C#N)cccc1[C@H](Nc1cc(C#N)c2ncc(C#N)c(NCC(C)(C)C)c2c1)c1cn(C23CC(C2)C3)nn1` [Example 1156, (S)-6-(((1-(bicyclo[1.1.1]pentan-1-yl)-1H-1,2,3-triazol-4-yl)(3-cyano-2-methylphenyl)methyl)amino)-4-(neopentylamino)quinoline-3,8-dicarbonitrile], for which the EC50 in assay [1] (setting [5]) was 13 nM. Further, the IC50 in assay [2] (setting [6]) stood at 1 nM.
Regarding `[2H][C@](Nc1cc(-c2ccc(NC(C)=O)cc2)c2ncc(C#N)c(NCC(C)(C)C)c2c1)(c1ccc(F)cc1)c1cn(C2CC2)nn1` [Example 169, (S)-N-(4-(3-cyano-6-(((1-cyclopropyl-1H-1,2,3-triazol-4-yl)(4-fluorophenyl)methyl-d)amino)-4-(neopentylamino)quinolin-8-yl)phenyl)acetamide], in assay [1] (setting [3]), the EC50 stood at 2910 nM. Moreover, the IC50 in assay [2] (setting [7]) is 543 nM.
On to `Cc1c(-c2cncn2C)cccc1[C@H](Nc1cc(C#N)c2ncc(C#N)c(NCC(C)(C)C)c2c1)c1cn(C2(C(F)(F)F)CC2)nn1` [Example 1135, (S)-6-(((2-methyl-3-(1-methyl-1H-imidazol-5-yl)phenyl)(1-(1-(trifluoromethyl)cyclopropyl)-1H-1,2,3-triazol-4-yl)methyl)amino)-4-(neopentylamino)quinoline-3,8-dicarbonitrile], for which the EC50 in assay [1] (setting [5]) was found to be 44 nM. For the same compound, in assay [2] (setting [6]), the IC50 came to 2 nM.
Regarding `CCN1CCC(n2cc([C@@H](Nc3cc(Cl)c4ncc(C#N)c(Nc5cccc(Cl)c5)c4c3)c3ccccc3)nn2)[C@H](O)C1` (some centres unmarked) [Example 516], in assay [1] (setting [3]), the EC50 was found to be 92 nM. The IC50 in assay [2] (setting [4]) was found to be 4 nM.
Turning to `[2H][C@](Nc1cc(Cl)c2ncc(C#N)c(N[C@H](CC)c3ccccc3)c2c1)(c1cccc(C#N)c1)c1cn(CC=C)nn1` [Compound 61], the EC50 in assay [1] (setting [3]) is 75 nM. The half-maximal inhibitory concentration (IC50) in assay [2] (setting [7]) was determined as 3 nM.
In the case of `[2H]C(Nc1cc(C#N)c2ncc(C#N)c(NCC(C)(C)C)c2c1)(c1cccc(C#N)c1)c1cn(C2(C(N)=O)CC2)nn1` (centres unmarked) [Example 969, 1-(4-((3-cyanophenyl)((3,8-dicyano-4-(neopentylamino)quinolin-6-yl)amino)methyl-d)-1H-1,2,3-triazol-1-yl)cyclopropane-1-carboxamide], the EC50 in assay [1] (setting [5]) is not below 1000 nM. Also, in assay [2] (setting [6]), the IC50 was determined as 1 nM.
As to `CC(C)(C)N1CCC(n2cc([C@@H](Nc3cc(Cl)c4ncc(C#N)c(Nc5cnc(F)c(F)c5)c4c3)c3ccc(Cl)cc3)nn2)CC1` [Example 660, (S)-6-(((1-(1-(tert-butyl)piperidin-4-yl)-1H-1,2,3-triazol-4-yl)(4-chlorophenyl)methyl)amino)-8-chloro-4-((5,6-difluoropyridin-3-yl)amino)quinoline-3-carbonitrile], in assay [1] (setting [3]), the EC50 is 807 nM. In assay [2] (setting [4]), the IC50 amounted to 14 nM.
On the same counts, the results for `CCN1CCC(n2cc([C@H](Nc3cc(Cl)c4ncc(C#N)c(Nc5ccc(F)c(Cl)c5)c4c3)c3ccc(F)cc3)nn2)CC1` [Example 849, (R)-8-chloro-4-((3-chloro-4-fluorophenyl)amino)-6-(((1-(1-ethylpiperidin-4-yl)-1H-1,2,3-triazol-4-yl)(4-fluorophenyl)methyl)amino) quinoline-3-carbonitrile] are 6280 nM and 687 nM.
For `[2H][C@](Nc1cc(Cl)c2ncc(C#N)c(N[C@@H]3CCCC[C@H]3CO)c2c1)(c1ccc(F)cc1)c1cn(C2CC2)nn1` [Example 235, 8-chloro-6-(((S)-(1-cyclopropyl-1H-1,2,3-triazol-4-yl)(4-fluorophenyl)methyl-d)amino)-4-(((1R,2R)-2-(hydroxymethyl)cyclohexyl)amino) quinoline-3-carbonitrile], the EC50 in assay [1] (setting [3]) was not below 10000 nM. Also, the IC50 in assay [2] (setting [7]) was found to be 605 nM.
On the same counts, the results for `[2H][C@](Nc1cc(Cl)c2ncc(C#N)c(NC3(C)CC3)c2c1)(c1ccc(F)cc1)c1cn(C2CC2)nn1` [Example 241, (S)-8-chloro-6-(((1-cyclopropyl-1H-1,2,3-triazol-4-yl)(4-fluorophenyl)methyl-d)amino)-4-((1-methylcyclopropyl)amino) quinoline-3-carbonitrile] are 5080 nM and 951 nM.
As for `[2H]C(Nc1cc(Cl)c2ncc(C#N)c(N[C@H](CC)c3ccccc3)c2c1)(c1ccccc1Cl)c1nn[nH]c1C` (stereo partly drawn) [Example 326, 8-chloro-6-(((2-chlorophenyl) (5-methyl-1H-1,2,3-triazol-4-yl)methyl-d)amino)-4-(((R)-1-phenylpropyl)amino)quinoline-3-carbonitrile], the EC50 in assay [1] (setting [3]) turned out to be 1960 nM. For the same compound, the IC50 in assay [2] (setting [7]) is 199 nM.
On to `Cc1c(C#N)cccc1[C@H](Nc1cc(C#N)c2ncc(C#N)c(NCC(C)(C)C(F)(F)F)c2c1)c1cn(C2(C)CC2)nn1` [Example 1146, (S)-6-(((3-cyano-2-methylphenyl)(1-(1-methylcyclopropyl)-1H-1,2,3-triazol-4-yl)methyl)amino)-4-((3,3,3-trifluoro-2,2-dimethylpropyl)amino)quinoline-3,8-dicarbonitrile], for which the half-maximal effective concentration (EC50) in assay [1] (setting [5]) worked out at 33 nM. For the same compound, the IC50 in assay [2] (setting [6]) came to 2 nM.
On the same counts, the results for `CC(C)(C)CNc1c(C#N)cnc2c(C#N)cc(N[C@@H](c3ccc(F)cc3)c3cn(C4(c5ccncc5)CC4)nn3)cc12` [Example 983, (S)-6-(((4-fluorophenyl)(1-(1-(pyridin-4-yl)cyclopropyl)-1H-1,2,3-triazol-4-yl)methyl)amino)-4-(neopentylamino) quinoline-3,8-dicarbonitrile] are 39 nM and 11 nM.
On to `CC(C(F)F)n1cc([C@@H](Nc2cc(Cl)c3ncc(C#N)c(Nc4cnc(F)c(F)c4)c3c2)c2ccc(F)cc2)nn1` (stereo partly drawn) [Example 407, 8-chloro-6-(((1S)-(1-(1,1-difluoropropan-2-yl)-1H-1,2,3-triazol-4-yl)(4-fluorophenyl)methyl)amino)-4-((5,6-difluoropyridin-3-yl)amino)quinoline-3-carbonitrile], for which the EC50 in assay [1] (setting [3]) is 1530 nM. Besides, the concentration for half-maximal inhibition (IC50) in assay [2] (setting [4]) stood at 47 nM.
As for `CC(C)(C)N1CCC(n2cc([C@@H](Nc3cc(Cl)c4ncc(C#N)c(Nc5ccc(F)cc5C#N)c4c3)c3ccccc3)nn2)CC1` [Example 471, (S)-6-(((1-(1-(tert-butyl)piperidin-4-yl)-1H-1,2,3-triazol-4-yl)(phenyl)methyl)amino)-8-chloro-4-((2-cyano-4-fluorophenyl)amino) quinoline-3-carbonitrile], the EC50 in assay [1] (setting [3]) came out at 8640 nM. In addition, the IC50 in assay [2] (setting [4]) turned out to be 333 nM.
On the same counts, the results for `CC(C)(C)N1CCC(n2cc([C@@H](Nc3cc(Cl)c4ncc(C#N)c(Nc5ccc(OCc6ccccc6)c(Cl)c5)c4c3)c3ccc(Cl)cc3)nn2)CC1` [Example 654, (S)-4-((4-(benzyloxy)-3-chlorophenyl)amino)-6-(((1-(1-(tert-butyl)piperidin-4-yl)-1H-1,2,3-triazol-4-yl)(4-chlorophenyl)methyl)amino)-8-chloroquinoline-3-carbonitrile] are more than 50000 nM and 2040 nM.
On the same counts, the results for `CC(C)n1cc([C@@H](Nc2cc(Cl)c3ncc(C#N)c(Nc4cccc(Cl)c4F)c3c2)c2cccc(C(=O)N(C)C)c2)nn1` [Example 607, (S)-3-(((8-chloro-4-((3-chloro-2-fluorophenyl)amino)-3-cyanoquinolin-6-yl)amino)(1-isopropyl-1H-1,2,3-triazol-4-yl)methyl)-N,N-dimethylbenzamide] are 198 nM and 2 nM.
For the compound `Cc1ccccc1[C@H](Nc1cc(C#N)c2ncc(C#N)c(NCC(C)(C)C)c2c1)c1cn(C2(C(F)F)CC2)nn1` [Example 1066, (S)-6-(((1-(1-(difluoromethyl)cyclopropyl)-1H-1,2,3-triazol-4-yl)(o-tolyl)methyl)amino)-4-(neopentylamino)quinoline-3,8-dicarbonitrile], the EC50 in assay [1] (setting [5]) amounted to 85 nM. In assay [2] (setting [6]), the IC50 amounted to 10 nM.
For `CC(C)(C)N1CCC(n2cc([C@@H](Nc3cc(Cl)c4ncc(C#N)c(Nc5ccc(F)c(Cl)c5)c4c3)c3cccc(I)c3)nn2)CC1` [Example 643], the EC50 in assay [1] (setting [3]) came out at 151 nM. For the same compound, the IC50 in assay [2] (setting [4]) is 7 nM.
For `[2H][C@@](Nc1cc(Cl)c2ncc(C#N)c(NCC(C)(C)C)c2c1)(c1cn(CC(=O)O)nn1)c1ccccc1Cl` [Example 108, (S)-2-(4-(((8-chloro-3-cyano-4-(neopentylamino)quinolin-6-yl)amino)(2-chlorophenyl)methyl-d)-1H-1,2,3-triazol-1-yl)acetic acid], the half-maximal effective concentration (EC50) in assay [1] (setting [3]) was more than 1000 nM. Further, the IC50 in assay [2] (setting [7]) was 48 nM.

As a reminder, the EC50 is the midpoint of the concentration-response curve. Broadly, the IC50 is the concentration that gives 50% inhibition.
